From patent US20080108710A1, “High-Potency Sweetener Composition With Preservative and Compositions Sweetened Therewith” (THE COCA-COLA COMPANY, priority 2006, published 2008)

Assays:
[1] = Rate of dissolution of rebaudioside A polymorph and amorphous forms in H2O; format: physicochemical
From the text: The purification of rebaudioside A by crystallization as described above results in the formation of at least three different polymorphs: Form 1: a rebaudioside A hydrate; Form 2: an anhydrous rebaudioside A; and Form 3: a rebaudioside A solvate. In addition to the at least three polymorph forms of rebaudioside A, the purification of rebaudioside A may result in the formation of an amorphous form of rebaudioside A, Form 4. The aqueous organic solution and temperature of the purification process influence the resulting polymorph and amorphous forms in the substantially pure rebaudioside A composition. FIGS. 1-5 are exemplary powder x-ray diffraction (XRPD) scans of the polymorph and amorphous forms of rebaudioside A: Form 1 (hydrate), Form 2 (anhydrate), Form 3A (methanol solvate), Form 3B (ethanol solvate), and Form 4 (amorphous), respectively.

[2] = tested on: panel of experts in the sensory evaluation of foods and beverages; test: Sensory evaluation of sweetness linger and taste characteristics; format: in vivo; parameters: key: 0: no sweetness linger; 1: very slight sweetness linger; 2: slight sweetness linger; 3: moderate sweetness linger; 4: moderately high sweetness linger; 5: high sweetness linger
Description: Sensory evaluation of the samples prepared in Example Set G was carried out under the following protocol, similar to that described hereinabove. In this test protocol, none of the samples were swallowed. All samples were expectorated and the mouth was rinsed with water after the tasting. Immediately upon sensing maximal sweetness, the sample was expectorated, the mouth was rinsed with water and the rate of sweetness decay (“Sweetness Linger”) was measured, where attention was focused on the sweetness 3-4 min after the water rinse. After sample tasting was complete, a salty oyster cracker was chewed followed by a water rinse, and at least 5 minutes followed before tasting the next sample. […]
Sweet taste improving compositions were combined with a REBA solution to determine their effect on sweetness linger. Screening of the initial sample, or further dilutions, allowed identification of concentrations which were just above-threshold, herein defined as “near-threshold concentrations.” The near-threshold additive concentrations, a 6- to 100-fold higher higher additive concentration (depending on the off-taste intensity), and a mid-level additive concentration (halfway between the near-threshold and higher additive concentration) were evaluated to determine the effect on sweetness linger of a REBA solution. […]

Substance | Rate of dissolution in H2O at 25° C. [1] | Sweetness Linger ([2]; Example Set G: citric acid/potassium citrate composition equivalent to diet lemon-lime beverage, scale 0-5, sweetness 3-4 min after water rinse) | Sweetness Linger ([2]; Example Set H: carbon-treated water with phosphoric acid (75%) to pH 2.4-2.5, scale 0-5)
rebaudioside A [Form 1] | Very low (<0.2%/60 %/60 minutes |  | 
rebaudioside A |  | 5 | 5
rebaudioside A [Form 2] | Intermediate (<30%/5 %/5 minutes |  | 
